From patent US9107411B2, “Indolecarboxamides and benzimidazolecarboxamides as insecticides and acaricides” (BAYER INTELLECTUAL PROPERTY GMBH, priority 2011, dated 2015)
Where two headings read alike, the source gives them in different places.

How the values were obtained:
Spodoptera frugiperda = Spodoptera frugiperda test (SPODFR spray treatment); format: in vivo; conditions: maize leaf discs, after 7 days
Protocol: Spodoptera frugiperda Test (SPODFR Spray Treatment) Solvent: 78.0 parts by weight of acetone • • 1.5 parts by weight of dimethylformamide To produce an appropriate active ingredient formulation, 1 part by weight of active ingredient is mixed with the stated amounts of solvent and emulsifier, and the concentrate is diluted with emulsifier-containing water to the desired concentration. Leaf discs of maize (Zea mays) are sprayed with an active ingredient formulation of the desired concentration and, after drying, populated with caterpillars of the armyworm (Spodoptera frugiperda). After 7 days, the efficacy in % is determined 100% means that all of the caterpillars have been killed; 0% means that none of the caterpillars have been killed.

Phaedon cochleariae = experiment: Phaedon test (PHAECO spray treatment); format: in vivo; conditions: Chinese cabbage leaf discs, after 7 days
Protocol: Phaedon Test ([…] Spray Treatment) Solvent: 78.0 parts by weight of acetone • • 1.5 parts by weight of dimethylformamide Emulsifier: 0.5 part by weight of alkylaryl polyglycol ether To produce an appropriate active ingredient formulation, 1 part by weight of active ingredient is mixed with the stated amounts of solvent and emulsifier, and the concentrate is diluted with emulsifier-containing water to the desired concentration. Leaf discs of Chinese cabbage (Brassica pekinensis) are sprayed with an active ingredient formulation of the desired concentration and, after drying, populated with larvae of the mustard beetle (Phaedon cochleariae). After 7 days, the efficacy in % is determined. 100% means that all of the beetle larvae have been killed; 0% means that none of the beetle larvae have been killed.

Tetranychus urticae = experiment: Tetranychus test, OP-resistant (TETRUR spray treatment); format: in vivo; conditions: bean leaf discs, after 6 days
Protocol: Tetranychus Test, OP-Resistant (TETRUR Spray Treatment)
Solvent: 78.0 parts by weight of acetone • • 1.5 parts by weight of dimethylformamide
Emulgator: 0.5 part by weight of alkylaryl polyglycol ether
To produce an appropriate active ingredient formulation, 1 part by weight of active ingredient is mixed with the stated amounts of solvent and emulsifier, and the concentrate is diluted with emulsifier-containing water to the desired concentration.
Discs of bean leaves (Phaseolus vulgaris) infested by all stages of the red spider mite (Tetranychus urticae) are sprayed with an active ingredient formulation of the desired concentration.
After 6 days, the efficacy in % is determined. 100% means that all of the spider mites have been killed; 0% means that none of the spider mites have been killed.

logP (HPLC-MS) = format: physicochemical
[1] = Phaedon cochleariae, foliar, 168 h, application rate 100 g/ha, read-out: efficacy in %
[2] = HPLC, reversed-phase column (C18), acidic range pH 2.7, acetonitrile (0.1% formic acid)/water gradient, 43° C., calibration with unbranched alkan-2-ones
[3] = HPLC, reversed-phase column (C18), 43° C., acidic range pH 2.7, EEC directive 79/831 Annex V.A8, two values = both regioisomers (G = N)
[4] = HPLC, reversed-phase column (C18), acidic range pH 2.7, acetonitrile (0.1% formic acid)/water gradient, 43° C., calibration with unbranched alkan-2-ones, read-out: log p

Row | SMILES | log p (logP (HPLC-MS); [2]) | efficacy in % (Spodoptera frugiperda; application rate 100 g/ha) [%] | efficacy in % (Tetranychus urticae; application rate 100 g/ha) [%] | efficacy in % (Phaedon cochleariae; application rate 100 g/ha) [%] | also measured
1 | N#CC1(NC(=O)c2cc3cc(C(=O)NC(c4cccc(C(F)(F)F)c4)C(F)(F)F)n(C4CC4)c3cc2Cl)CC1 (stereo not shown) [Compound 302, 6-chloro-N^5-(1-cyanocyclopropyl)-1-cyclopropyl-N^2-{2,2,2-trifluoro-1-[3-(trifluoromethyl)phenyl]ethyl}-1H-indole-2,5-dicarboxamide] |  | 100 | 100 |  | pest or weed control at 100 g/ha (Phaedon cochleariae; [1]): 100%; chromatographic logP (logP (HPLC-MS); HPLC, reversed-phase column (C18), 43° C., acidic range pH 2.7, EEC directive 79/831 Annex V.A8, two values = both regioisomers (G = N), read-out: log p): 3.6; chromatographic logP (logP (HPLC-MS); HPLC-MS): 3.59
2 | CCn1c(C(=O)NC(c2cc(Cl)cc(Cl)c2)C(F)(F)F)nc2cc(C(=O)NC3CC3)c(Cl)cc21 (stereo not shown) [Compound 317] |  |  |  |  | efficacy in % (Spodoptera frugiperda; application rate 500 g/ha): 100%; efficacy in % (Phaedon cochleariae; application rate 500 g/ha): 100%; efficacy in % (Tetranychus urticae; application rate 500 g/ha): 100%
3 | CCn1c(C(=O)NC(c2cc(Cl)c(F)c(Cl)c2)C(F)(F)F)cc2cc(C(=O)NC3CC3)c(C)cc21 (stereo not shown) [Compound 296] |  | 100 | 100 | 100 | log p (logP (HPLC-MS); [3]): 4.16
4 | CCn1c(C(=O)NC(c2cccc(C(F)(F)F)c2)C(F)(F)F)cc2cc(C(=O)NC3(C(N)=S)CC3)c(Cl)cc21 (stereo not shown) [Compound 273, N^5-(1-carbamothioylcyclopropyl)-6-chloro-1-ethyl-N^2-{2,2,2-trifluoro-1-[3-(trifluoromethyl)phenyl]ethyl}-1H-indole-2,5-dicarboxamide] |  | 100 | 100 |  | pest or weed control at 100 g/ha (Phaedon cochleariae; [1]): 100%; chromatographic logP (logP (HPLC-MS); [4]): 3.56; chromatographic logP (logP (HPLC-MS); HPLC-MS): 3.56
5 | C#CCC(C#N)NC(=O)c1cc2cc(C(=O)NC(c3cccc(C(F)(F)F)c3)C(F)(F)F)n(CC)c2cc1Cl (stereo not shown) [Compound 268] | 3.91 | 100 | 100 | 100 | 
6 | Cn1c(C(=O)NC(c2ccc(F)c(Cl)c2)C(F)(F)F)cc2cc(C(=O)NC3CC3)c(Cl)cc21 (stereo not shown) [Compound 53] | 3.42 | 100 | 100 | 100 | 
7 | Cn1c(C(=O)NC(c2ccc(F)c(Br)c2)C(F)(F)F)cc2cc(C(=O)NC3CC3)c(Cl)cc21 (stereo not shown) [Compound 51] | 3.61 | 100 | 100 | 100 | 
8 | N#CC1(NC(=O)c2cc3cc(C(=O)NC(c4cccc(C(F)(F)F)c4)C(F)(F)F)n(C4CCC4)c3cc2Cl)CC1 (stereo not shown) [Compound 274] | 4.03 |  |  |  | efficacy in % (Spodoptera frugiperda; application rate 500 g/ha): 100%; efficacy in % (Phaedon cochleariae; application rate 500 g/ha): 100%; efficacy in % (Tetranychus urticae; application rate 500 g/ha): 100%
9 | CCn1c(C(=O)NC(c2cccc(Cl)c2)C(F)(F)F)cc2cc(C(=O)NC3CC3)c(C)cc21 (stereo not shown) [Compound 184] | 3.57 | 100 | 100 | 100 | 
10 | Cn1c(C(=O)NC(c2cccc(Br)c2)C(F)(F)F)cc2cc(C(=O)NC3CC3)c(Cl)cc21 (stereo not shown) [Compound 47] | 3.42 |  | 90 | 100 | 
11 | CCn1c(C(=O)NC(c2cccc(C(F)(F)F)c2)C(F)(F)F)cc2cc(C(=O)NC(C)C#N)c(Cl)cc21 (stereo not shown) [Compound 9] | 3.72 | 100 | 90 | 100 | 
12 | CCn1c(C(=O)NC(c2ccc(F)c(F)c2)C(F)(F)F)cc2cc(C(=O)NC3(C#N)CC3)c(C)cc21 (stereo not shown) [Compound 292] |  | 100 | 100 | 100 | log p (logP (HPLC-MS); [3]): 3.48
13 | C#CCn1c(C(=O)NC(c2cc(Cl)cc(Cl)c2)C(F)(F)F)cc2cc(C(=O)NC3CC3)c(Cl)cc21 (stereo not shown) [Compound 65] | 3.90 | 100 | 100 |  | 
14 | CCn1c(C(=O)NC(c2cccc(C(F)(F)F)c2)C(F)(F)F)nc2cc(C(=O)NC3CC3)c(Cl)cc21 (stereo not shown) [Compound 4, 6-chloro-N^5-cyclopropyl-1-ethyl-N^2-{2,2,2-trifluoro-1-[3-(trifluoromethyl)phenyl]ethyl}-1H-benzimidazole-2,5-dicarboxamide] |  |  |  |  | efficacy in % (Spodoptera frugiperda; application rate 500 g/ha): 100%; pest or weed control at 500 g/ha (Phaedon cochleariae; Phaedon cochleariae, foliar, 168 h, application rate 500 g/ha, read-out: efficacy in %): 100%; efficacy in % (Tetranychus urticae; application rate 500 g/ha): 100%; chromatographic logP (logP (HPLC-MS); [4]): 3.67; chromatographic logP (logP (HPLC-MS); HPLC-MS): 3.71
15 | N#CCn1c(C(=O)NC(c2cccc(C(F)(F)F)c2)C(F)(F)F)cc2cc(C(=O)NC3(C#N)CC3)c(Cl)cc21 (stereo not shown) [Compound 294] |  |  |  | 100 | efficacy in % (Tetranychus urticae; application rate 500 g/ha): 100%; log p (logP (HPLC-MS); [3]): 3.30
16 | CCN(CC)C(=O)c1cc2cc(C(=O)NC(c3ccc(F)c(Cl)c3)C(F)(F)F)n(CC)c2cc1C (stereo not shown) [Compound 320] |  | 100 | 100 | 100 | log p (logP (HPLC-MS); [3]): 4.35
17 | CCn1c(C(=O)NC(c2cc(F)cc(Cl)c2)C(F)(F)F)cc2cc(C(=O)NC3CC3)c(C)cc21 (stereo not shown) [Compound 298] |  | 100 | 100 | 100 | log p (logP (HPLC-MS); [3]): 3.77
18 | CCn1c(C(=O)NC(c2cccc(C(F)(F)F)c2)C(F)(F)F)cc2cc(C(=O)NCCC#N)c(Cl)cc21 (stereo not shown) [Compound 263] | 3.53 | 100 | 100 | 100 | 
19 | CCn1c(C(=O)NC(c2ccc(Cl)c(Cl)c2)C(F)(F)F)cc2cc(C(=O)NC3CC3)c(C)cc21 (stereo not shown) [Compound 297] |  | 100 | 100 | 100 | log p (logP (HPLC-MS); [3]): 3.99
20 | CCn1c(C(=O)NC(c2ccc(F)c(C(F)(F)F)c2)C(F)(F)F)cc2cc(C(=O)NC3CCC3)c(C)cc21 (stereo not shown) [Compound 304] |  | 100 |  | 100 | efficacy in % (Tetranychus urticae; application rate 500 g/ha): 100%; log p (logP (HPLC-MS); [3]): 4.24
21 | Cn1c(C(=O)NC(c2cccc(Cl)c2)C(F)(F)F)cc2cc(C(=O)NC3CC3)c(Cl)cc21 (stereo not shown) [Compound 45] | 3.33 | 100 |  | 100 | 
22 | N#CC1(NC(=O)c2cc3cc(C(=O)NC(c4cccc(C(F)(F)F)c4)C(F)(F)F)n(COCc4ccccc4)c3cc2Cl)CC1 (stereo not shown) [Compound 286] |  |  | 100 | 100 | log p (logP (HPLC-MS); [3]): 4.17

Second part, led by results:

Row | log p (logP (HPLC-MS); [2]) | SMILES | efficacy in % (Spodoptera frugiperda; application rate 100 g/ha) [%] | efficacy in % (Tetranychus urticae; application rate 100 g/ha) [%] | efficacy in % (Phaedon cochleariae; application rate 100 g/ha) [%] | also measured
23 | 3.48 | C#CCn1c(C(=O)NC(c2cccc(Br)c2)C(F)(F)F)cc2cc(C(=O)NC3(C#N)CC3)c(Cl)cc21 (stereo not shown) [Compound 60] | 100 | 100 | 100 | 
24 | 3.58 | CCn1c(C(=O)NC(c2cccc(Cl)c2)C(F)(F)F)cc2cc(C(=O)NC3(C#N)CC3)c(C)cc21 (stereo not shown) [Compound 185] | 100 | 100 | 100 | 
25 | 3.42 | C#CCn1c(C(=O)NC(c2cccc(Cl)c2)C(F)(F)F)cc2cc(C(=O)NC3(C#N)CC3)c(Cl)cc21 (stereo not shown) [Compound 58] | 100 | 100 | 100 | 
26 | 3.31 | Cn1c(C(=O)NC(c2cccc(Cl)c2)C(F)(F)F)cc2cc(C(=O)NC3(C#N)CC3)c(Cl)cc21 (stereo not shown) [Compound 46] |  | 100 | 100 | 
27 | 3.44 | C#CCn1c(C(=O)NC(c2cccc(Br)c2)C(F)(F)F)cc2cc(C(=O)NC3CC3)c(Cl)cc21 (stereo not shown) [Compound 59] | 100 | 100 |  | 
28 | 3.87 | C#CCn1c(C(=O)NC(c2cc(Cl)cc(Cl)c2)C(F)(F)F)cc2cc(C(=O)NC3(C#N)CC3)c(Cl)cc21 (stereo not shown) [Compound 66] | 100 | 100 | 100 | 
29 | 4.14 | CCn1c(C(=O)NC(c2cc(Cl)cc(Cl)c2)C(F)(F)F)cc2cc(C(=O)NC3(C#N)CC3)c(Cl)cc21 (stereo not shown) [Compound 43] | 100 | 100 | 100 | 
30 | 3.41 | C#CCn1c(C(=O)NC(c2ccc(F)c(Cl)c2)C(F)(F)F)cc2cc(C(=O)NC3(C#N)CC3)c(Cl)cc21 (stereo not shown) [Compound 64] | 100 | 100 | 100 | 
